Measurements published in US9605029B2, “Antibody-binding peptide” (NATIONAL INSTITUTE OF ADVANCED INDUSTRIAL SCIENCE AND …, priority 2013, dated 2017).

System: Fc region (Jackson ImmunoResearch Laboratories, Inc.) labeled with horseradish peroxidase (HRP)
Assay: ELISA of recombinant phages displaying polypeptides (Example 2, 6)
Assay type: binding, human
Details: recombinant T7 phage displaying the polypeptide, absorbance at 415 nm
Experimental: 6) In this section, it will be stated as an example that the binding activity of recombinant phages transformed by nucleic acids encoding amino acid sequences represented by SEQ ID NOs: 26, 27, 30 to 55, 57, 63 to 72 and 79 to 81 was measured by Enzyme Linked Immuno-Sorbent Assay (ELISA).
DNA molecules encoding amino acid sequences of SEQ ID NOs: 26, 27, 30 to 55, 57, 63 to 72 and 79 to 81 were amplified by a polymerase chain reaction (PCR) using KOD DNA polymerase (TOYOBO) under the reaction conditions according to the accompanying manual. Each of the amplified DNA was digested with restriction enzymes EcoRI and HindIII, and ligated to the 3′ terminal of g10 gene on T7 phage genomic DNA. Ligation to T7 phage genomic DNA was performed by use of a sample attached to T7Select10-3 Cloning Kit (Novagen) under the reaction conditions and in accordance with the procedure described in T7Select (registered trade mark) System Manual. Using T7 phage genomic DNA ligated, T7 phage was packaged in a test tube by T7Select Packaging Kit (Novagen) under the reaction conditions in accordance with T7Select (registered trade mark) System Manual (Novagen). Subsequently, phage plaque was formed in accordance with T7Select (registered trade mark) System Manual (Novagen). From each of the plaques, a recombinant phage displaying the polypeptide was isolated. To MICROTEST (registered trade mark) 96 (BECTON, DICKINSON AND COMPANY), a culture solution (0.2 mL) of Escherichia coli BL5403 strain cultured in LB medium until O.D.600 reached 1.0 was poured to infect with the Escherichia coli cells each of the recombinant phages isolated from plaques and allowed to stand still 37° C. for 12 hours to proliferate phages. The culture solution (10 μL) containing these phages was diluted in 90 μL of TBS buffer (50 mM Tris-HCl, 150 mM NaCl, pH 7.4) to prepare measurement samples.
The measurement samples were poured to MEDISORP 96 well microplate (Nunc) and allowed to stand still for one hour to allow the phage to physically adsorb to the plate. The supernatant was removed and SuperBlock (registered trade mark) T20 (TBS) Blocking Buffer (Thermo […]) (150 μL) was poured to the plate and allowed to stand still for one hour to block the surface of the plate. The plate was washed three times with TBS-T buffer (50 mM Tris-HCl, 150 mM NaCl, 0.1% Tween 20 (registered trade mark), pH 7.4). To the plate, TBS-T buffer (100 μL) containing an Fc region (Jackson ImmunoResearch Laboratories, Inc.) (0.2 μg/mL) labeled with horseradish peroxidase (HRP) was added and allowed to stand still for one hour. After the plate was washed three times with TBS-T buffer, ABTS One Component HRP Microwell Substrate (BioFX) (100 μL) was poured to the plate. The binding activity was detected through a […]. The absorbance at 415 nm (O.D.415) was measured by a microplate absorbance reader Sunrise R (TECAN GROUP LTD.). TBS-T buffer containing no phages was used as a negative control in a control experiment.
ELISA results of the recombinant phages displaying polypeptides containing amino acid sequences represented by SEQ ID NOs: 26, 27 and 30 to 55 and the recombinant phages displaying polypeptides containing amino acid sequences represented by SEQ ID NOs: 57, 63 to 72 and 79 to 81 are shown in Table 5A and Table 5B, respectively.

Substance | O.D. 415 (control 0.11) | O.D. 415 (control 0.098)
26 (DAAWHLGELVWATYYDPETGTWLPDWQTMAQK; IgG binding peptide, pep21) [compound 26] | 0.43 | –
27 (DAAWHLGELVWATYYDPETGTWEPDWQRMLGQ; IgG binding peptide, pep24) [compound 27] | 0.289 | –
30 (DAAWHLGELVWATYYDPETGTWEPDWKLMQRP; IgG binding peptide, pep7) [compound 30] | 0.287 | –
31 (DAAWHLGELVWATYYDPETGTWQPDWDIMAGH; IgG binding peptide, pep25) [compound 31] | 0.295 | –
32 (DAAWHLGELVWATYYDPETGTWLPDWDVMVRQ; IgG binding peptide, pep27) [compound 32] | 0.352 | –
33 (DAAWHLGELVWATYYDPETGTWVPDWERMKQH; IgG binding peptide, pep31) [compound 33] | 0.305 | –
34 (DAAWHLGELVWATYYDPETGTWEPDWSKMRPQ; IgG binding peptide, pep1) [compound 34] | 0.281 | –
35 (DAAWHLGELVWATYYDPETGTWRPDWAVMATP; IgG binding peptide, pep2) [compound 35] | 0.32 | –
36 (DAAWHLGELVWATYYDPETGTWKPDWRMMGVP; IgG binding peptide, pep3) [compound 36] | 0.287 | –
37 (DAAWHLGELVWATYYDPETGTWLPDWDYMSSK; IgG binding peptide, pep4) [compound 37] | 0.235 | –
38 (DAAWHLGELVWATYYDPETGTWMPDWDRMLRR; IgG binding peptide, pep5) [compound 38] | 0.29 | –
39 (DAAWHLGELVWATYYDPETGTWTPDWNAMSQR; IgG binding peptide, pep6) [compound 39] | 0.273 | –
40 (DAAWHLGELVWATYYDPETGTWQPDWKRMTSR; IgG binding peptide, pep10) [compound 40] | 0.251 | –
41 (DAAWHLGELVWATYYDPETGTWQPDWGRMNSK; IgG binding peptide, pep12) [compound 41] | 0.274 | –
42 (DAAWHLGELVWATYYDPETGTWAPDWNRMRDFNRSFREV; IgG binding peptide, pep29) [compound 42] | 0.273 | –
43 (DAAWHLGELVWATYYDPETGTWVPDWDAMSSR; IgG binding peptide, pep15) [compound 43] | 0.813 | –
44 (DAAWHLGELVWATYYDPETGTWIPDWTRMQTW; IgG binding peptide, pep16) [compound 44] | 0.243 | –
45 (DAAWHLGELVWATYYDPETGTWKPDWQRMKLH; IgG binding peptide, pep17) [compound 45] | 0.249 | –
46 (DAAWHLGELVWATYYDPETGTWLPDWSQMRPQ; IgG binding peptide, pep18) [compound 46] | 0.243 | –
47 (DAAWHLGELVWATYYDPETGTWLPDWDTMTPR; IgG binding peptide, pep19) [compound 47] | 0.255 | –
48 (DAAWHLGELVWATYYDPETGTWQPDWSVMKSL; IgG binding peptide, pep20) [compound 48] | 0.373 | –

Substance | O.D. 415 (control 0.11) | O.D. 415 (control 0.098)
49 (DAAWHLGELVWATYYDPETGTWVPDWDTMHAAINRSFREV; Artificial Sequence, pep22; IgG binding peptide) [compound 49] | 0.346 | –
50 (DAAWHLGELVWATYYDPETGTWIPDWRAMSQF; IgG binding peptide, pep23) [compound 50] | 0.244 | –
51 (DAAWHLGELVWATYYDPETGTWLPDWNLMGQH; IgG binding peptide, pep26) [compound 51] | 0.265 | –
52 (DAAWHLGELVWATYYDPETGTWRPDWARMEPM; IgG binding peptide, pep28) [compound 52] | 0.25 | –
53 (DAAWHLGELVWATYYDPETGTWKPDWQVMSPVSNRSFREV; IgG binding peptide, pep29) [compound 53] | 0.279 | –
54 (DAAWHLGELVWATYYDPETGTWQPDWEIMRPF; IgG binding peptide, pep30) [compound 54] | 0.258 | –
55 (EAWHLGELVWATYYDPETGTWRPDWSRMSGR; IgG binding peptide, pep11_2) [compound 55] | 0.252 | –
57 (GPGISAFSPGRGVYDPETGTWYDAAWHLGELVWATYYDPETGTWEPDWQRMLGQ; IgG binding peptide, p17) [compound 57] | – | 0.229
63 (SNFVRSPSAWYDPETGTWYDAAWHLGELVWATYYDPETGTWEPDWQRMLGQ; IgG binding peptide, p2_2) [compound 63] | – | 0.272
64 (IPYGFPGRGEYDPETGTWYDAAWHLGELVWATYYDPETGTWEPDWQRMLGQ; IgG binding peptide, p4) [compound 64] | – | 0.213
65 (GPYNIPDSAVYDPETGTWYDAAWHLGELVWATYYDPETGTWEPDWQRMLGQ; IgG binding peptide, p5) [compound 65] | – | 0.291
66 (WPLNAPSSAFYDPETGTWYDAAWHLGELVWATYYDPETGTWEPDWQRMLGQ; IgG binding peptide, p13) [compound 66] | – | 0.182
67 (VPPRFSSSAQYDPETGTWYDAAWHLGELVWATYYDPETGTWEPDWQRMLGQ; IgG binding peptide, p14) [compound 67] | – | 0.25
68 (FLVGLHAGAVYDPETGTWYDAAWHLGELVWATYYDPETGTWEPDWQRMLGQ; IgG binding peptide, p15_2) [compound 68] | – | 0.186
69 (VVRVDHSSAVYDPETGTWYDAAWHLGELVWATYYDPETGTWEPDWQRMLGQ; IgG binding peptide, p20) [compound 69] | – | 0.201
70 (WMEFYPGRGVYDPETGTWYDAAWHLGELVWATYYDPETGTWEPDWQRMLGQ; IgG binding peptide, p26) [compound 70] | – | 0.189
71 (DGVGPGSRGVYDPETGTWYDAAWHLGELVWATYYDPETGTWEPDWQRMLGQ; IgG binding peptide, p27) [compound 71] | – | 0.219
72 (FVSSLPNSAMYDPETGTWYDAAWHLGELVWATYYDPETGTWEPDWQRMLGQ; IgG binding peptide, p28) [compound 72] | – | 0.229
79 (GSCKFSSSCHYDPETGTWYDAAWHLGELVWATYYDPETGTWEPDWQRMLGQ; IgG binding peptide, p24_2) [compound 79] | – | 0.329
80 (LIPPGGISPWYDPETGTWYDAAWHLGELVWATYYDPETGTWEPDWQRMLGQ; IgG binding peptide, p25_2) [compound 80] | – | 0.215
81 (LNDFLTPTAWYDPETGTWYDAAWHLGELVWATYYDPETGTWLPDWQTMAQK; IgG binding peptide, p31) [compound 81] | – | 0.235
